This is an account of results in US6911430B2, “Compositions and methods for treating ileus” (VipoGen, LLC, priority 2003, dated 2005).

Ends that are not written are not given here.

The assay has as its system Male Wistar rats. The assay is described as follows: Intestinal transit of Evans blue after laparotomy and manipulation of the intestines (postoperative ileus model). Particulars: single peptide approx. 150 μg per kg i.v. tail vein bolus 1 minute before surgery, skin incision, 20 minute transit period, mean. It counts as in vivo, rat. As for the experimental part: Male Wistar rats are commonly used to study the mechanisms that regulate gastrointestinal function by several laboratories across the United States and the world. This model is well characterized experimentally and has the added advantage of providing results in a short time frame, limiting the animal's distress.
Two hours prior to start of surgery, the required amount of peptide was measured to the nearest […] and placed into 0.5 ml saline. The suspension was then vortexed for 1 minute and then incubated at room temperature for one hour after. The solution was kept refrigerated until 30 minutes before the onset of surgery. The solution was allowed to warm to room temperature for 30 minutes prior to the surgery. Following this warming period, the solution was placed into a 1 cc insulin syringe for tail vein injection 1 minute prior to surgery.
Male Wistar rats (150-250 g) were fasted for 48 hours with free access to water. This fast was necessary to empty the gastrointestinal tract so that the Evans Blue introduced after the surgery could be accurately tracked. The rats were divided into groups in a randomized way. The randomized groups were then given isoflorane anesthesia, followed by clearing of the abdominal area with 10% antibacterial iodine solution and alcohol and shaving prior to surgery. Isoflorane was administered continuously (3-5%) using a vaporizer. […] Diethyl ether can also be used for anesthesia.
Thereafter, the rats received an i.v. injection (VIP receptor antagonists, PACAP receptor antagonists, or combination thereof were delivered in saline) in the tail vein of the appropriate drug or control for its group one minute before the operation. The peptides included VIP (10-28) and PACAP (6-38). The dosage amount of each peptide administered was approximately 150 μg per kg body weight. For the combination treatment a ratio of 1:1 of a PACAP receptor antagonist to VIP receptor antagonists was used, the total peptide amount being approximately 300 μg per kg body weight. The peptide dosages were consistent animal to animal throughout the study and were administered by bolus injections.
All groups underwent a laparotomy consisting of the incision of the abdominal skin, abdominal muscle layers and peritoneum. The laparatomy was followed by evisceration and manipulation of the small intestine and the caecum. In these experiments, the caecum and small intestine were gently pulled out of the abdominal cavity, unfurled like a fan and exposed on two sterile gauzes covering the abdomen of the rat. […]
Twenty minutes later, the rats were euthanized by an overdose pentobarbital (150 mg/kg i.v. tail vein) and the intestinal transit was measured from the pylorus to the most distal point of the migration of Evans blue and expressed in cm.

On to “VIP(10-28) (YTRLRKQMAVKKYLNSILN; listed as Homo sapiens) [VIP-RA]”, for which the “% of the intestinal length traversed by Evan's Blue” value was found to be 31% and the “intestinal motility: distance Evan's Blue traveled through the intestines” value came out at 26 cm.
The like results for “PACAP(6-38) (FTDSYSRYRKQMAVKKYLAAVLGKRYKQRVKNK; ends and bridges not checked; listed as Homo sapiens) [PACAP-RA]” were, in that order, 32% and 23 cm.
